Assay results reported in US9060541B2, “Sterilizer for foods” (Kawakami Co., Ltd., priority 2009, dated 2015).
Read-outs that look alike come from different tables or passages of the source.

What was measured:
Assay type in all cases: cell-based
Parameters in all cases: key: D: There is no sterilization effect.; C: There is a sterilization effect in step (1) but no sterilization effect in step (2).; B: There is a sterilization effect up to step (2) but no sterilization effect in step (3).; A: There is a sterilization effect up to step (3)
Vibrio fluvialis KX-F24 = experiment: Comparison test of sterilization effects against various food poisoning microbes
[1] = tested on: Salmonella serotype Stanley KX-S141; experiment: as above
[2] = tested on: Salmonella serotype Rissen KX-S151; experiment: as above
[3] = tested on: Salmonella serotype Kentucky KX-S149; experiment: as above
[4] = tested on: Shigella boydii serotype 4 KX-H288; experiment: as above
Shigella sonnei KX-H285 = experiment: as above
Aeromonas sobria KX-A435 = experiment: as above
[5] = tested on: Aeromonas hydrophila KX-A428; experiment: as above
[6] = tested on: Enterotoxigenic Escherichia coli RIMD 0509267; experiment: as above
[7] = tested on: Enterohemorrhagic Escherichia coli O157:H7 EDL 933
[8] = tested on: Enteroinvasive Escherichia coli O28ac KX-E63; experiment: Comparison test of sterilization effects against various food poisoning microbes
[9] = tested on: Lactobacillus plantarum RIMD 1202001; experiment: as above
[10] = tested on: Campylobacter jejuni subsp. Jejuni JCM2013; experiment: as above
[11] = tested on: Campylobacter coli JCM 2529; experiment: as above
[12] = tested on: Candida albicans NCPF 3179; experiment: as above
[13] = Table 7, test microbe solution without yeast extract
[14] = Table 8, yeast extract 4 weight % blended in test microbe solution

SMILES | Sterilization effect (Vibrio fluvialis KX-F24; [13]) | Sterilization effect (Vibrio fluvialis KX-F24; [14]) | Sterilization effect [1, 13] | Sterilization effect [1, 14] | Sterilization effect [2, 13] | Sterilization effect [2, 14] | Sterilization effect [3, 13] | Sterilization effect [3, 14] | Sterilization effect [4, 13] | Sterilization effect [4, 14] | Sterilization effect (Shigella sonnei KX-H285; [13]) | Sterilization effect (Shigella sonnei KX-H285; [14]) | Sterilization effect (Aeromonas sobria KX-A435; [13]) | Sterilization effect (Aeromonas sobria KX-A435; [14]) | Sterilization effect [5, 13] | Sterilization effect [5, 14] | Sterilization effect [6, 13] | Sterilization effect [6, 14] | Sterilization effect [8, 13] | Sterilization effect [8, 14] | also measured
CCO [EtOH 30%, ethanol] | C | C | C | C | C | C | C | C | D | D | C | C | B | C | B | C | D | D | C | C | Sterilization effect [7]: D; Sterilization effect [9, 13]: C; Sterilization effect [9, 14]: D; Sterilization effect [10, 13]: B; Sterilization effect [10, 14]: B; Sterilization effect [11, 13]: B; Sterilization effect [11, 14]: B; Sterilization effect [12, 13]: B; Sterilization effect [12, 14]: C
[Na+].[O-]Cl [S.H 150 ppm, sodium hypochlorite] | A | D | A | D | A | D | A | D | A | D | A | D | A | D | A | D | A | D | A | D | Sterilization effect [7, 13]: A; Sterilization effect [7, 14]: D; Sterilization effect [9, 13]: A; Sterilization effect [9, 14]: D; Sterilization effect [10, 13]: A; Sterilization effect [10, 14]: C; Sterilization effect [11, 13]: A; Sterilization effect [11, 14]: C; Sterilization effect [12, 13]: A; Sterilization effect [12, 14]: D
